In the case of `O=C(O)Cc1ccccc1OCCCc1cn(-c2ccc(C(F)(F)F)cn2)nc1-c1ccccc1` [Example 134, [2-(3-{3-phenyl-1-[5-(trifluoromethyl)-2-pyridyl]-1H-pyrazol-4-yl}propoxy)phenyl]acetic acid], the melting point – broadly, the temperature of the solid-liquid transition – fell in the range of 133 to 134 °C.

In turn, `CCCc1nn(-c2ccc(C(F)(F)F)cn2)cc1CCCOc1ccc(CC(=O)O)c(OC)c1` [Example 95, [2-methoxy-4-(3-{3-propyl-1-[5-(trifluoromethyl)-2-pyridyl]-1H-pyrazol-4-yl}propoxy)phenyl]acetic acid] showed a melting point of 135 to 136 °C. `CCc1ccc(OC(C)(C)C(=O)O)cc1OCCCc1cn(-c2ccc(C(F)(F)F)cn2)nc1C(C)C` [Example 377, 2-[4-ethyl-3-(3-{3-isopropyl-1-[5-(trifluoromethyl)-2-pyridinyl]-1H-pyrazol-4-yl}propoxy)phenoxy]-2-methylpropanoic acid] displayed a melting point of 115 to 116 °C. As to `COc1cccc(CC(=O)O)c1OCCCc1cn(-c2cccc(C(F)(F)F)n2)nc1C(C)C` [Example 365, [2-(3-{3-isopropyl-1-[6-(trifluoromethyl)-2-pyridinyl]-1H-pyrazol-4-yl}propoxy)-3-methoxyphenyl]acetic acid], the melting point lay within 95 to 97 °C. Next, `Cc1nn(-c2ccc(C(F)(F)F)cn2)cc1COc1cccc(OC(C)(C)C(=O)O)c1` [Example 32, 2-methyl-2-(3-{3-methyl-1-[5-(trifluoromethyl)-2-pyridyl]-1H-pyrazol-4-ylmethoxy}phenoxy)propionic acid]: 152 to 153 °C. Next, `CC(C)c1nn(-c2ccc(C(F)(F)F)cn2)cc1CCCCOc1nn(-c2ccccc2)cc1CC(=O)O` [Example 68, [3-(4-{3-isopropyl-1-[5-(trifluoromethyl)-2-pyridinyl]-1H-pyrazol-4-yl}butoxy)-1-phenyl-1H-pyrazol-4-yl]acetic acid]: 119 to 120 °C; `CCCc1nn(-c2ccc(C(F)(F)F)cn2)cc1CCCOc1ccc(OC)c(CC(=O)O)c1` [Example 97, [2-methoxy-5-(3-{3-propyl-1-[5-(trifluoromethyl)-2-pyridinyl]-1H-pyrazol-4-yl}propoxy)phenyl]acetic acid]: 135 to 136 °C.

`CC(C)c1nn(-c2ccc(C(F)(F)F)cn2)cc1CCCOc1cccc(CCC(=O)O)c1` [Example 23, 3-[3-(3-{3-isopropyl-1-[5-(trifluoromethyl)-2-pyridyl]-1H-pyrazol-4-yl}propoxy)phenyl]propionic acid] returned a melting point of 102 to 103 °C. For `CCOc1nn(-c2ccccn2)cc1CCCOc1ccc(CCC(=O)O)cc1OC` [Example 109, 3-(4-{3-[3-ethoxy-1-(2-pyridinyl)-1H-pyrazol-4-yl]propoxy}-3-methoxyphenyl)propanoic acid], the melting point lay within 92 to 93 °C. `COc1cccc(CC(=O)O)c1OCCCc1cn(-c2cc(C(F)(F)F)ccn2)nc1C(C)C` [Example 363, [2-(3-{3-isopropyl-1-[4-(trifluoromethyl)-2-pyridinyl]-1H-pyrazol-4-yl}propoxy)-3-methoxyphenyl]acetic acid] had a melting point of 127 to 128 °C.

`CCCc1nn(-c2ccc(C(F)(F)F)cn2)cc1CCCOc1ccc(F)c(CC(=O)O)c1` [Example 90, [2-fluoro-5-(3-{3-propyl-1-[5-(trifluoromethyl)-2-pyridyl]-1H-pyrazol-4-yl}propoxy)phenyl]acetic acid] returned a melting point of 111 to 112 °C. Turning to `CCCCc1nn(-c2ccc(C(F)(F)F)cn2)cc1CCCOc1nn(C)cc1CC(=O)O` [Example 199, [3-(3-{3-butyl-1-[5-(trifluoromethyl)-2-pyridyl]-1H-pyrazol-4-yl}propoxy)-1-methyl-1H-pyrazol-4-yl]acetic acid], the melting point was in the range of 125 to 126 °C. In turn, `Cc1nn(-c2ccc(C(F)(F)F)cn2)cc1COc1cc(/C=C/C(=O)O)n(C)n1` [Example 37, (E)-3-(1-methyl-3-{3-methyl-1-[5-(trifluoromethyl)-2-pyridyl]-1H-pyrazol-4-ylmethoxy}-1H-pyrazol-5-yl)propenoic acid] yielded a melting point of 208 to 209 °C. Turning to `CCOc1nn(-c2cc(C(F)(F)F)ccn2)cc1CCCOc1ccccc1CC(=O)O` [Example 288, [2-(3-{3-ethoxy-1-[4-(trifluoromethyl)-2-pyridinyl]-1H-pyrazol-4-yl}propoxy)phenyl]acetic acid], the melting point lay in the range of 121 to 122 °C. Next, `COc1ccc(OC(C)(C)C(=O)O)cc1OCCCc1cn(-c2ccc(C(F)(F)F)cn2)nc1C(C)C` [Example 376, 2-[3-(3-{3-isopropyl-1-[5-(trifluoromethyl)-2-pyridinyl]-1H-pyrazol-4-yl}propoxy)-4-methoxyphenoxy]-2-methylpropanoic acid]: 106 to 107 °C; `CCOc1cccc(CC(=O)O)c1OCCCc1cn(-c2ccc(C(F)(F)F)cn2)nc1OCC` [Example 301, [3-ethoxy-2-(3-{3-ethoxy-1-[5-(trifluoromethyl)-2-pyridinyl]-1H-pyrazol-4-yl}propoxy)phenyl]acetic acid]: 114 to 115 °C; `CC(C)c1nn(-c2ccc(C(F)(F)F)cn2)cc1CCCCOc1ccc(CC(=O)O)cc1` [Example 53, [4-(4-{3-isopropyl-1-[5-(trifluoromethyl)-2-pyridinyl]-1H-pyrazol-4-yl}butoxy)phenyl]acetic acid]: 130 to 131 °C.

`CCCc1nn(-c2ccc(C(F)(F)F)cn2)cc1CCCOc1cc(CCC(=O)O)ccc1OC` [Example 93, 3-[4-methoxy-3-(3-{3-propyl-1-[5-(trifluoromethyl)-2-pyridyl]-1H-pyrazol-4-yl}propoxy)phenyl]propionic acid] came in with a melting point of 147 to 148 °C. The same measure for `CCCc1nn(-c2ccc(C(F)(F)F)cn2)cc1CCCOc1cccc(C(C)(C)C(=O)O)c1` [Example 159, 2-methyl-2-[3-(3-{3-propyl-1-[5-(trifluoromethyl)-2-pyridyl]-1H-pyrazol-4-yl}propoxy)phenyl]propanoic acid]: 82 to 83 °C; for `Cn1ncc(CC(=O)O)c1OCCCc1cn(-c2ccc(C(F)(F)F)cn2)nc1C1CCCCC1` [Example 325, [5-(3-{3-cyclohexyl-1-[5-(trifluoromethyl)-2-pyridinyl]-1H-pyrazol-4-yl}propoxy)-1-methyl-1H-pyrazol-4-yl]acetic acid]: 137 to 138 °C; for `CCOc1nn(-c2ccc(C(F)(F)F)cn2)cc1CCCOc1cc(OC)ccc1CCC(=O)O` [Example 143, 3-[2-(3-{3-ethoxy-1-[5-(trifluoromethyl)-2-pyridyl]-1H-pyrazol-4-yl}propoxy)-4-methoxyphenyl]propionic acid]: 115 to 116 °C. `Cc1nn(-c2ccc(C(F)(F)F)cn2)cc1CCCOc1cc(CC(=O)O)n(C)n1` [Example 283, [1-methyl-3-(3-{3-methyl-1-[5-(trifluoromethyl)-2-pyridinyl]-1H-pyrazol-4-yl}propoxy)-1H-pyrazol-5-yl]acetic acid] showed a melting point of 143 to 144 °C.

As for `COc1cc(OCCCCc2cn(-c3ccc(C(F)(F)F)cn3)nc2C(C)C)ccc1CCC(=O)O` [Example 69, 3-[4-(4-{3-isopropyl-1-[5-(trifluoromethyl)-2-pyridinyl]-1H-pyrazol-4-yl}butoxy)-2-methoxyphenyl]propanoic acid], the melting point fell in the range of 125 to 126 °C. Regarding `CCCc1nn(-c2ccc(C(F)(F)F)cn2)cc1CCCOc1c(C)cnn1CC(=O)O` [Example 329, [4-methyl-5-(3-{3-propyl-1-[5-(trifluoromethyl)-2-pyridinyl]-1H-pyrazol-4-yl}propoxy)-1H-pyrazol-1-yl]acetic acid], the melting point lay within 145 to 146 °C. For `CCOc1nn(-c2ccc(C(F)(F)F)cn2)cc1CCCOc1cccc(CCC(=O)O)c1` [Example 33, 3-[3-(3-{3-ethoxy-1-[5-(trifluoromethyl)-2-pyridyl]-1H-pyrazol-4-yl}propoxy)phenyl]propionic acid], the melting point was 88 to 89 °C. For the molecule `CCOc1cc(OCCCCc2cn(-c3ccc(C(F)(F)F)cn3)nc2OCC)ccc1CCC(=O)O` [Example 107, 3-[2-ethoxy-4-(4-{3-ethoxy-1-[5-(trifluoromethyl)-2-pyridinyl]-1H-pyrazol-4-yl}butoxy)phenyl]propanoic acid], the melting point lay within 101 to 102 °C.

On to `CCOc1nn(-c2ccc(C(F)(F)F)cn2)cc1CCCOc1ccc(CCC(=O)O)cc1OCc1ccccc1` [Example 166, 3-[3-benzyloxy-4-(3-{3-ethoxy-1-[5-(trifluoromethyl)-2-pyridyl]-1H-pyrazol-4-yl}propoxy)phenyl]propanoic acid], for which the melting point was in the range of 115 to 116 °C. The same measure for `CCOc1cc(OCCCc2cn(-c3ccccn3)nc2OCC)ccc1CCC(=O)O` [Example 108, 3-(2-ethoxy-4-{3-[3-ethoxy-1-(2-pyridinyl)-1H-pyrazol-4-yl]propoxy}phenyl)propanoic acid]: 110 to 111 °C. On to `CCCc1nn(-c2ccc(C(F)(F)F)cn2)cc1CCCOc1c(CC(=O)O)cccc1C(C)C` [Example 359, [3-isopropyl-2-(3-{3-propyl-1-[5-(trifluoromethyl)-2-pyridinyl]-1H-pyrazol-4-yl}propoxy)phenyl]acetic acid], for which the melting point lay within 102 to 103 °C. The same measure for `CCc1cccc(CC(=O)O)c1OCCCc1cn(-c2ncc(Cl)cc2Cl)nc1C(C)C` [Example 251, (2-{3-[1-(3,5-dichloro-2-pyridinyl)-3-isopropyl-1H-pyrazol-4-yl]propoxy}-3-ethylphenyl)acetic acid]: 93 to 95 °C. Molecule `CCCc1nn(-c2ccc(C(F)(F)F)cn2)cc1CCCCOc1cc(CCC(=O)O)n(C)n1` [Example 70, 3-[1-methyl-3-(4-{3-propyl-1-[5-(trifluoromethyl)-2-pyridinyl]-1H-pyrazol-4-yl}butoxy)-1H-pyrazol-5-yl]propanoic acid] registered a melting point of 122 to 123 °C. The same measure for `CC(C)c1nn(-c2ccc(C(F)(F)F)cn2)cc1CCCOc1c(C#N)cccc1CC(=O)O` [Example 231, [3-cyano-2-(3-{3-isopropyl-1-[5-(trifluoromethyl)-2-pyridinyl]-1H-pyrazol-4-yl}propoxy)phenyl]acetic acid]: 144 to 145 °C.

Source of the values: US20060148858A1, “1, 2-Azole derivatives with hypoglycemic and hypolipidemic activity” (priority 2002, published 2006).
